Measurements as given in patent US6531148B1, “Therapeutic agents” (Takara Shuzo Co., Ltd., priority 1998, dated 2003).
Converted amounts (≈) assume the structure as drawn.

Tests used:
HL-60 cells = assay: Antiproliferation activity against tumor cells (MTT, absorbance at 590 nm); assay type: cell-based
Description: The Samples 1 to 3 were separately sterilized by filtration and appropriately diluted with sterile water. 10 μl of each dilution was placed in a well of a 96-well microtiter plate. 90 μl of RPMI 1640 medium (Nissui) containing 10% fetal bovine serum (Gibco), which had been treated at 56° C. for 30 minutes, and 5,000 HL-60 cells (ATCC CCL-240) was added thereto. The plate was incubated at 37° C. for 48 hours in the presence of 5% CO2. The cell morphology was examined under an optical microscope. 10 μl of 5 mg/ml 3-(4,5-dimethylthiazol-2-yl)-2,5-diphenyltetrazolium bromide (Sigma) solution in phosphate buffered saline was further added thereto and the incubation was continued for additional 4 hours. 100 μl of 2-propanol containing 0.04 N HCl was added to the well and the mixture was thoroughly stirred. The absorbance at 590 nm was measured to determine the cell growth level.

[1] = tested on: inducible NO synthase (iNOS); assay: iNOS expression (RT-PCR, Western blotting); assay type: cell-based; settings: RAW264.7 cells cultured for 4, 6 or 8 hours
Description: The present inventors have confirmed that the compound of formula (I), the compound of formula (II) and salts thereof inhibit the expression of iNOS. The confirmation was carried out at protein level by using Western blotting and at messenger RNA level by using RT-PCR. […] Therefore, the compound is effective in treating and preventing diseases that require inhibition of NO production for their treatment and prevention.
RNA was prepared from RAW264.7 cells cultured for 4, 6 or 8 hours under conditions similar to those described above. The amount of mRNA encoding inducible NO synthase [iNOS; Biochem. Byophys. Res. Commun., 215:148-153 (1995)] contained in the RNA was determined by the RT-PCR method.

[2] = tested on: Bacillus subtilis IFO3021; assay: Antimicrobial activity test; assay type: cell-based; settings: Bacterium 3, 24 hours
Description: (§1) The antimicrobial activities of DGE against Escherichia coli W3110 (Bacterium 1), Salmonella typhimurium LT2 (Bacterium 2), Bacillus subtilis IFO3021 (Bacterium 3), Pseudomonas aeruginosa IFO3080 (Bacterium 4) and Streptococcus mutans GS5 (Bacterium 5) were examined as follows.
(§2) The Bacteria 1 to 4 were cultured overnight in L-broth. The cultures were diluted to a concentration of about 2×10^5 cells/180 μl with Sensitive Bouillon medium (Nissui) base on the turbidity. The Bacterium 5 was cultured overnight in Brain Heart Infusion medium. The culture was diluted to a concentration of about 2×10^5 cells/180 μl with Brain Heart Infusion medium based on the turbidity. 180 μl of each bacterial dilution was placed in each well of a 96-well microtiter plate. On the other hand, the respective bacterial dilutions were further diluted and spread onto plates of L-broth or Brain Heart Infusion medium. The plates were incubated at 37° C. overnight. The resulting colonies were counted to determine the stating viable cell numbers.
(§3) A 14.4 mg/ml DGE solution was diluted every 2-folds to prepare serial dilutions. 20 μl each of the dilutions was placed in the well in which the bacterial dilution had been placed. The cells were cultured at 37° C. for 24 hours without shaking. After cultivation, the turbidity of each culture was measured.
(§4) Furthermore, the culture from the well for which the growth of bacterial cells was not observed was spread onto plates. After the plates were incubated at 37° C. overnight, the colony number was counted to determine the viable cell number. […] The minimal growth-inhibitory concentrations and the minimal bacteriocidal concentrations of DGE for the Bacteria 1 to 5 were determined as shown in Table 2.

Escherichia coli W3110 = assay: Antimicrobial activity test; assay type: cell-based; settings: Bacterium 1, 24 hours
Description: as §1, §2, §3, §4

[3] = tested on: Pseudomonas aeruginosa IFO3080; assay: Antimicrobial activity test; assay type: cell-based; settings: Bacterium 4, 24 hours
Description: as §1, §2, §3, §4

[4] = tested on: Salmonella typhimurium LT2; assay: Antimicrobial activity test; assay type: cell-based; settings: Bacterium 2, 24 hours
Description: as §1, §2, §3, §4

Streptococcus mutans GS5 = assay: Antimicrobial activity test; assay type: cell-based; settings: Bacterium 5, 24 hours
Description: as §1, §2, §3, §4

human FGF-β = assay: Cytokine production from DSEK cells (ELISA); assay type: cell-based; settings: DSEK culture supernatant at 24 or 72 hours
Description: (§5) 150 μl/well of culture supernatant was recovered from the DSEK cell culture at 24 or 72 hours. The effects of DGE on the production (expression) of cytokines (human TGF-β, human FGF-β, human IL-1α and human IL-10) from the cell were determined using ELISA kits specific for the respective cytokines (from Intergen for human FGF-β and human IL-10; and from Promega for human IL-1α and human TGF-β).

human IL-10 = assay: Cytokine production from DSEK cells (ELISA); assay type: cell-based; settings: DSEK culture supernatant at 24 or 72 hours
Description: as §5

human IL-1α = assay: Cytokine production from DSEK cells (ELISA); assay type: cell-based; settings: DSEK culture supernatant at 24 or 72 hours
Description: as §5

human TGF-β = assay: Cytokine production from DSEK cells (ELISA); assay type: cell-based; settings: DSEK culture supernatant at 24 or 72 hours
Description: as §5

spleen lymphocytes = assay: Lymphocyte activation inhibition test; assay type: cell-based, mouse; settings: 3H-thymidine uptake
Source text: A ddY mouse (female, 7 weeks old, weighing about 25 g) was purchased from Nippon SLC and pre-bred for 1 week before using in experiments. A spleen was taken out from the mouse, finely minced and suspended in RPMI-1640 medium containing 10% fetal bovine serum (HyClone) to obtain a single cell suspension. Adhesive cells adhered to a plastic Petri dish were removed and non-adhesive cells were used as spleen lymphocytes. The spleen lymphocytes were suspended in RPMI 1640 medium containing 10% fetal bovine serum at a concentration of 2×10^6/ml. 200 μl of the suspension was seeded into each well of a 96-well microtiter plate. DGE at a varying concentration was added to each well other than the control well. Furthermore, 5 μg of Con A (Nacalai Tesque) was added to each well. The plate was incubated at 37° C. for two days in the presence of 5% CO2. 37 kBq of ^3H-thymidine (Daiichi Pure Chemicals) was added to each well to pulse-label the cells on the day before the completion of the cultivation. After cultivation, the cells were harvested on a glass filter to measure the radioactivity.

Compound	antiproliferation activity against tumor cells (HL-60 cells; 48 hours, absorbance at 590 nm)	GI50, the concentration that results in 50% growth inhibition (HL-60 cells; half absorbance at 590 nm compared with water control)	formation of apoptotic bodies (HL-60 cells; optical microscope)	amplification of a DNA fragment from the iNOS mRNA [1]	MIC ([2]; Bacillus subtilis, IFO3021, read-out: Minimal growth-inhibitory concentration) [µg/mL]	Minimal bacteriocidal concentration [2] [µg/mL]	Minimal bacteriocidal concentration (Escherichia coli W3110) [µg/mL]	MIC (Escherichia coli W3110; Escherichia coli, W3110, read-out: Minimal growth-inhibitory concentration) [µg/mL]	Minimal bacteriocidal concentration [3] [µg/mL]	MIC ([3]; Pseudomonas aeruginosa, IFO3080, read-out: Minimal growth-inhibitory concentration) [µg/mL]	Minimal bacteriocidal concentration [4] [µg/mL]	MIC ([4]; Salmonella enterica, TYPHIMURIUM, read-out: Minimal growth-inhibitory concentration) [µg/mL]	Minimal bacteriocidal concentration (Streptococcus mutans GS5) [µg/mL]	MIC (Streptococcus mutans GS5; Streptococcus mutans, GS5, read-out: Minimal growth-inhibitory concentration) [µg/mL]	production of human FGF-β (human FGF-β)	production of human IL-10 (human IL-10)	production of human IL-1α (human IL-1α)	production of human TGF-β (human TGF-β)	inhibitory activity against lymphocyte proliferation activated by stimulation with mitogen (spleen lymphocytes; Con A)	concentration that almost completely inhibits the proliferation (spleen lymphocytes; Con A-stimulated spleen lymphocytes) [µg/mL]
5-L-glutathion-S-yl-2-hydroxy-3,7-dioxabicyclo[2.2.2]octan-1-ol [DGE-GSH]	inhibition of cell growth	about 48.7 μg/ml	apoptotic bodies were observed	–	–	–	–	–	–	–	–	–	–	–	–	–	–	–	–	–
O=C1C=CC(CO)OC1O [DGE, L-glycero-1,5-epoxy-1αβ,6-dihydroxy-cis-hex-3-en-2-one]	–	–	–	no amplification of the fragment was observed	360 (≈ 2500 µM)	720	720	360 (≈ 2500 µM)	720	360 (≈ 2500 µM)	720	360 (≈ 2500 µM)	180	90 (≈ 624 µM)	inhibiting the production	enhancing the production	inhibiting the production	enhancing the production	in a dose-dependent manner	0.3
